Results reported in US20170334899A1, “AMINO-SUBSTITUTED ISOTHIAZOLES” (Bayer Pharma Aktiengesellschaft, priority 2014, published 2017).

Assays:
[1] = test system: human cervical tumor cell line HeLa (ATCC CCL-2); test: SAC-Formation - Nocodazole-Induced Assay; format: cell-based; conditions: Homo sapiens, HeLa, 24 h, HeLa cells, nocodazole 0.1 μg/ml together with test compound, decrease of mitotic cells (phospho-histone H3 Ser10)
Procedure, shortened: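 HeLa cells, plated overnight, were treated 24 h at 37 °C with nocodazole (0.1 μg/ml final) plus test compound (0.005–20 μM, 0.5% DMSO) added at the same time. After fixation, anti-phospho-histone H3 Ser10 and Hoechst staining gave the mitotic cell fraction by imaging. Values came from four-parameter Hill fits.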

[2] = test system: HeLa; test: Proliferation assay (crystal violet), HeLa; format: cell-based; conditions: Homo sapiens, HeLa, 96 h, HeLa cells; 4 days incubation; crystal violet staining; read-out: IC50 inhibition of proliferation, HeLa
Procedure, shortened: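 Seed 1000–5000 cells/well, 10% FCS; 24 h later replace medium and add compound (0.001–10 μM, 0.5% DMSO); incubate 4 d; glutaraldehyde fix, 0.1% crystal violet pH 3.0, elute with 10% acetic acid; A595; 4-parameter IC50.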

Row | IC50 [1] | IC50 [2] | Structure (SMILES)
1 | 260 nM | 810 nM | Cc1nsc(Nc2cnc(C(F)(F)F)cn2)c1C(=O)Nc1ccc(N2CCN(CC(F)(F)F)CC2)cn1 [Example 373, 3-methyl-N-{5-[4-(2,2,2-trifluoroethyl)piperazin-1-yl]pyridin-2-yl}-5-{[5-(trifluoromethyl)pyrazin-2-yl]amino}-1,2-thiazole-4-carboxamide]
2 | 120 nM | 920 nM | Cc1nsc(Nc2cnc(C(F)(F)F)cn2)c1C(=O)Nc1ccc(N2CCN(CCC(F)(F)F)CC2)cn1 [Example 374, 3-methyl-5-{[5-(trifluoromethyl)pyrazin-2-yl]amino}-N-{5-[4-(3,3,3-trifluoropropyl)piperazin-1-yl]pyridin-2-yl}-1,2-thiazole-4-carboxamide]
3 | 40 nM | 300 nM | Cc1nsc(Nc2cnc(C(F)(F)F)cn2)c1C(=O)Nc1ccc(OC[C@@H]2CCCN(CC(F)F)C2)nc1 [Example 375, N-(6-{[(3R)-1-(2,2-difluoroethyl)piperidin-3-yl]methoxy}pyridin-3-yl)-3-methyl-5-{[5-(trifluoromethyl)pyrazin-2-yl]amino}-1,2-thiazole-4-carboxamide]
4 | 50 nM | 310 nM | Cc1nsc(Nc2cnc(C(F)(F)F)cn2)c1C(=O)Nc1ccc(OC[C@@H]2CCCN(CC(F)(F)F)C2)nc1 [Example 376, 3-methyl-N-(6-{[(3R)-1-(2,2,2-trifluoroethyl)piperidin-3-yl]methoxy}pyridin-3-yl)-5-{[5-(trifluoromethyl)pyrazin-2-yl]amino}-1,2-thiazole-4-carboxamide]
5 | 40 nM | 370 nM | Cc1nsc(Nc2cnc(C(F)(F)F)cn2)c1C(=O)Nc1ccc(OC[C@@H]2CCCN(CCC(F)(F)F)C2)nc1 [Example 377, 3-methyl-5-{[5-(trifluoromethyl)pyrazin-2-yl]amino}-N-(6-{[(3R)-1-(3,3,3-trifluoropropyl)piperidin-3-yl]methoxy}pyridin-3-yl)-1,2-thiazole-4-carboxamide]
6 | 34 nM | 620 nM | Cc1nsc(Nc2cnc(C(F)(F)F)cn2)c1C(=O)Nc1ccc(O[C@@H]2CCN(CC(F)F)C2)nc1 [Example 379, N-(6-{[(3R)-1-(2,2-difluoroethyl)pyrrolidin-3-yl]oxy}pyridin-3-yl)-3-methyl-5-{[5-(trifluoromethyl)pyrazin-2-yl]amino}-1,2-thiazole-4-carboxamide]
7 | 340 nM | 550 nM | Cc1nsc(Nc2cnc(C(F)(F)F)cn2)c1C(=O)Nc1ccc(O[C@@H]2CCN(CC(F)(F)F)C2)nc1 [Example 380, 3-methyl-N-(6-{[(3R)-1-(2,2,2-trifluoroethyl)pyrrolidin-3-yl]oxy}pyridin-3-yl)-5-{[5-(trifluoromethyl)pyrazin-2-yl]amino}-1,2-thiazole-4-carboxamide]
8 | 47 nM | 410 nM | Cc1nsc(Nc2cnc(C(F)(F)F)cn2)c1C(=O)Nc1ccc(O[C@@H]2CCN(CCC(F)(F)F)C2)nc1 [Example 381, 3-methyl-5-{[5-(trifluoromethyl)pyrazin-2-yl]amino}-N-(6-{[(3R)-1-(3,3,3-trifluoropropyl)pyrrolidin-3-yl]oxy}pyridin-3-yl)-1,2-thiazole-4-carboxamide]
9 | 24 nM | 180 nM | Cc1nsc(Nc2cnc(C(F)(F)F)cn2)c1C(=O)Nc1ccc(O[C@H]2CCN(CC(F)F)C2)nc1 [Example 382, N-(6-{[(3S)-1-(2,2-difluoroethyl)pyrrolidin-3-yl]oxy}pyridin-3-yl)-3-methyl-5-{[5-(trifluoromethyl)pyrazin-2-yl]amino}-1,2-thiazole-4-carboxamide]
10 | 27 nM | 280 nM | Cc1nsc(Nc2cnc(C(F)(F)F)cn2)c1C(=O)Nc1ccc(O[C@H]2CCN(CC(F)(F)F)C2)nc1 [Example 383, 3-methyl-N-(6-{[(3S)-1-(2,2,2-trifluoroethyl)pyrrolidin-3-yl]oxy}pyridin-3-yl)-5-{[5-(trifluoromethyl)pyrazin-2-yl]amino}-1,2-thiazole-4-carboxamide]
